Article PMC9632963, “Preclinical characterization and phase I clinical trial of CT053PTSA targets MET, AXL, and VEGFR2 in patients with advanced solid tumors” (Frontiers in Immunology, 2022)

How the values were obtained:
[1] = target: EphA4 (Homo sapiens, UniProt P54764); experiment: Kinase inhibition assay (LANCE or HTRF); type: biochemical; conditions: ATP at Km
Protocol: (§2) The IC50 values were determined by measuring phosphorylation of peptide substrate poly at ATP concentrations at the Km.

[2] = target: VEGFR2 (Homo sapiens, UniProt P35968); experiment: Kinase inhibition assay (LANCE or HTRF); type: biochemical; conditions: ATP at Km
Protocol: as §2

[3] = target: HIPK4 (Homo sapiens, UniProt Q8NE63); experiment: Kinase inhibition assay (LANCE or HTRF); type: biochemical; conditions: ATP at Km
Protocol: as §2

[4] = target: RET (Homo sapiens, UniProt P07949); experiment: Kinase inhibition assay (LANCE or HTRF); type: biochemical; conditions: ATP at Km
Protocol: as §2

[5] = tested on: HUVECs; experiment: Endothelial cell tubule formation assay, VEGF-induced; type: cell-based; conditions: Homo sapiens, HUVEC, VEGF 40 ng/ml, 8 hours
Source text: Then, after staining with Calcein AM (ThermoFisher, CA, USA), images of tubule formation were captured, and the total tube area was quantified with ImageXpress HCS (Molecular Devices, CA, USA).

[6] = tested on: MKN45; experiment: Cell proliferation assay (CellTiter-Glo, 72 hours); type: cell-based; conditions: Homo sapiens, MKN-45, read-out: IC50 anti-proliferative
Protocol: Human gastric tumor cell lines with high MET expression levels, namely, the GTL-16, MKN45, SNU638, Hs746T, SNU-620, and SNU-5 cell lines, were used in the assay. […] Cell viability was measured after 72 hours using a CellTiter-Glo Luminescent Cell Viability Assay Kit (Promega, WI, USA) according to the manufacturer’s instructions.

[7] = tested on: SNU-601; experiment: Cell proliferation assay (CellTiter-Glo, 72 hours); type: cell-based; conditions: Homo sapiens, read-out: IC50 anti-proliferative
Protocol: These cell lines were obtained from American Type Culture Collection (ATCC), Japanese Collection of Research Bioresources (JCRB), Shanghai Institutes of Biological Sciences, CAS (SIBS), Korean Cell Line Bank (KCLB) or National Institutes of Health (NIH). […] Cell viability was measured after 72 hours using a CellTiter-Glo Luminescent Cell Viability Assay Kit (Promega, WI, USA) according to the manufacturer’s instructions.

[8] = tested on: NUGC3; experiment: Cell proliferation assay (CellTiter-Glo, 72 hours); type: cell-based; conditions: Homo sapiens, NUGC-3, read-out: IC50 anti-proliferative
Protocol: Human gastric tumor cell lines with high MET expression levels, namely, the GTL-16, MKN45, SNU638, Hs746T, SNU-620, and SNU-5 cell lines, were used in the assay. These cell lines were obtained from American Type Culture Collection (ATCC), Japanese Collection of Research Bioresources (JCRB), Shanghai Institutes of Biological Sciences, CAS (SIBS), Korean Cell Line Bank (KCLB) or National Institutes of Health (NIH). […] Cell viability was measured after 72 hours using a CellTiter-Glo Luminescent Cell Viability Assay Kit (Promega, WI, USA) according to the manufacturer’s instructions.

[9] = tested on: MKN-45 CDX xenografts; experiment: In vivo efficacy study, CDX model; design: species or system BALB/cA nude mice
Protocol: (§1) Human tumor xenografts were established in female BALB/cA nude mice (5-6 weeks old) by administering the SNU-5 and MKN-45 cells, which have high MET expression levels. For efficacy studies in patient-derived tumor xenograft (PDX) mouse models, MET-overexpressing GA0046 and GA3121 tumors (obtained from Crownbio, CA, USA) were established by directly implanting surgical tissues into immunodeficient mice. […] The subcutaneous tumor size and body weight were measured twice weekly. The tumor volumes were determined by measuring two perpendicular diameters with calipers and calculated as (length × width^2)/2.

[10] = tested on: SNU-5 CDX xenografts; experiment: In vivo efficacy study, CDX model; design: species or system BALB/cA nude mice
Protocol: as §1

[11] = Phase I trial: clinical pharmacokinetics in plasma; type: in vivo, human
Protocol: A clinical pharmacokinetic study of CT053PTSA was performed for both single doses and multiple doses. Blood samples were collected from each subject at prespecified times before and after single-dose administration (systemic blood samples: before treatment and 0.5, 1, 2, 3, 4, 5, 8, 12, 24, 36, 48, 72, 120 and 168 hours after treatment) and during multiple dosing (cycle 1 before treatment on Days 8, 15 and 22, as well as systemic blood samples on Day 28). […]
Statistical analysis of CT053-treated tumors versus vehicle-treated tumors or versus nontreated tumors was performed by repeated-measures ANOVA. The data from the tumor xenograft models were expressed as the means ± standard error of the mean (SEM) and were plotted as a function of time. Noncompartmental pharmacokinetic analysis was performed using Phoenix WinNonlin Version 6.2.1 (Certara Inc., NJ, USA). Demographics and laboratory results of all the subjects were summarized using descriptive statistics. The pharmacokinetic parameters Tmax and T1/2 were shown as the median (min, max) and mean ± SD, respectively. A two-sided P < 0.05 was considered to indicate statistical significance. Statistical analysis was performed by using GraphPad Prism 5.0 (GraphPad Prism, RRID : SCR_002798) and SPSS software version 19.0 (SPSS, RRID : SCR_002865).

[12] = 3 mg/kg once per day oral gavage

Chain of RET (P07949 29-1114): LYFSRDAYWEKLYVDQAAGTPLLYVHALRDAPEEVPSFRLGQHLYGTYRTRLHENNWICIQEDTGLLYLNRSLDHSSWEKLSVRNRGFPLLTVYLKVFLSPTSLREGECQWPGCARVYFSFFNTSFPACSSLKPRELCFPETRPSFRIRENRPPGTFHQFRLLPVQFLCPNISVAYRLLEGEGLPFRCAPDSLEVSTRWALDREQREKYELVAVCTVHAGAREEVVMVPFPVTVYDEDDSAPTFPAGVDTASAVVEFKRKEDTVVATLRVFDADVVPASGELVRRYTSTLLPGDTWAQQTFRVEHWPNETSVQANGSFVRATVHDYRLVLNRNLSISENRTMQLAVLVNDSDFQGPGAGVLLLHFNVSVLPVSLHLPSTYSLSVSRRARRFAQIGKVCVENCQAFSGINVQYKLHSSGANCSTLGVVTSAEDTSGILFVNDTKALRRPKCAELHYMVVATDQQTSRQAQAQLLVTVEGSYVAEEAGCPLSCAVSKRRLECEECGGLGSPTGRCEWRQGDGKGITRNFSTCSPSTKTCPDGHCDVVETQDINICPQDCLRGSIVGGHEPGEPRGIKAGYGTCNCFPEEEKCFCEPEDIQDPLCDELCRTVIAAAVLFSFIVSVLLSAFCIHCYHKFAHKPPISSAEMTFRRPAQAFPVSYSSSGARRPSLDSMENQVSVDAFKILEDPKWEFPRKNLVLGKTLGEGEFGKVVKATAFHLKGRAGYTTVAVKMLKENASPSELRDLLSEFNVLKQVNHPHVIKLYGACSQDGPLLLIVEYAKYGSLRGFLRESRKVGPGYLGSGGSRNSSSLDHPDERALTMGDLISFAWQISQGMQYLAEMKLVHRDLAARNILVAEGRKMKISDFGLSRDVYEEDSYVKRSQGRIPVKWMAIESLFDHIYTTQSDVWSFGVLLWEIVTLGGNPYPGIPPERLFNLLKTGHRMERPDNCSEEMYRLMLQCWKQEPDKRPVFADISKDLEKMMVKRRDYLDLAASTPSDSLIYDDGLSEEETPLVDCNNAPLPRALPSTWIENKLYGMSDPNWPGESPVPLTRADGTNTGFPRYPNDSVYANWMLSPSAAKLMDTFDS
Chain of VEGFR2 (P35968 20-1356): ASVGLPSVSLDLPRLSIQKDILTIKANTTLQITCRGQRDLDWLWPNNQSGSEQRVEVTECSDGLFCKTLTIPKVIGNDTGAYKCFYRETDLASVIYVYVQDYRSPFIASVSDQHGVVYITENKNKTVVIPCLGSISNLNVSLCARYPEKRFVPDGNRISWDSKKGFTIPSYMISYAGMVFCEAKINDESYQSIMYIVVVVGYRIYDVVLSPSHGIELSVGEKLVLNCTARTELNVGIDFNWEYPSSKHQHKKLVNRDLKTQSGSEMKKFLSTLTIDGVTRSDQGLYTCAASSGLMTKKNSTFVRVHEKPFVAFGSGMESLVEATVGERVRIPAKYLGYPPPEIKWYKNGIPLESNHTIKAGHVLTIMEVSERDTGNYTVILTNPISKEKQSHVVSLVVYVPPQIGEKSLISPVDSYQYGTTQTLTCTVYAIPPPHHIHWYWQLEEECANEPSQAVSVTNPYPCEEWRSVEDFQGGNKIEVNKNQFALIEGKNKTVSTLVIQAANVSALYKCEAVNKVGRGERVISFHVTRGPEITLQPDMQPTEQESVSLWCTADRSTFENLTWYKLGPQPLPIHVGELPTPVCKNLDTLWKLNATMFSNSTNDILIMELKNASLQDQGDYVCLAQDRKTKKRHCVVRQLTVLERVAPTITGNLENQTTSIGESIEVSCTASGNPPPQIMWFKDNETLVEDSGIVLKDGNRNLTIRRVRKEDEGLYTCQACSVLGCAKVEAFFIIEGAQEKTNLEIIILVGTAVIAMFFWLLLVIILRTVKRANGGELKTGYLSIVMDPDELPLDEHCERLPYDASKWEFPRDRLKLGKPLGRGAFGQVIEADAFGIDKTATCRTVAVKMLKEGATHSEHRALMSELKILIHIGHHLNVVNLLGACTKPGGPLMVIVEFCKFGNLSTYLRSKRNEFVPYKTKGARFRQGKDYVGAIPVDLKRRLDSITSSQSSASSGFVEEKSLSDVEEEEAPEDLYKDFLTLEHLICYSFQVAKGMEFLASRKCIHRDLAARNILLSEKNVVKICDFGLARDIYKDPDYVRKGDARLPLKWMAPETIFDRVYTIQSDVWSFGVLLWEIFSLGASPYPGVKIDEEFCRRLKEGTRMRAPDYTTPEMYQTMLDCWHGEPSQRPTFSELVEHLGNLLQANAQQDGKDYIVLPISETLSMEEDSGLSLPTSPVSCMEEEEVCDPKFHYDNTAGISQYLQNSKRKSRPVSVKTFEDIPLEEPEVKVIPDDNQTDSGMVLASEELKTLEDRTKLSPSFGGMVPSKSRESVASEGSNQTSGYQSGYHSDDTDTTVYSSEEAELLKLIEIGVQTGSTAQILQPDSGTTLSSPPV
Chain of HIPK4 (Q8NE63 whole entry): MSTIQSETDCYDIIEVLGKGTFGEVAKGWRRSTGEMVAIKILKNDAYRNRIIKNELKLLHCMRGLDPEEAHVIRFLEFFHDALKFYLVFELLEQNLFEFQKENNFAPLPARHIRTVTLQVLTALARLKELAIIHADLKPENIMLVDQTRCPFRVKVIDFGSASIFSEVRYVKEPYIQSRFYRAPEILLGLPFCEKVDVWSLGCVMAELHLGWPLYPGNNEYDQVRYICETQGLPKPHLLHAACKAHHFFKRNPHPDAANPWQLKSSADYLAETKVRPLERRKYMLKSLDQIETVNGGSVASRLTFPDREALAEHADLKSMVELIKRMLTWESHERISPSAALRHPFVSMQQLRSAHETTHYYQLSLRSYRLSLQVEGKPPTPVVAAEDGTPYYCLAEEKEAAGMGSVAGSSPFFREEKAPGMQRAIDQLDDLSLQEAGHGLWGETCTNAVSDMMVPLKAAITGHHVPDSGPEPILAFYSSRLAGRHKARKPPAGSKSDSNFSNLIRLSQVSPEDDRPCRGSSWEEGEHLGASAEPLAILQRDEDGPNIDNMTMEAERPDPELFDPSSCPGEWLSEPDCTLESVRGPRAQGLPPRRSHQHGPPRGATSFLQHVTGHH
Chain of EphA4 (P54764 20-986): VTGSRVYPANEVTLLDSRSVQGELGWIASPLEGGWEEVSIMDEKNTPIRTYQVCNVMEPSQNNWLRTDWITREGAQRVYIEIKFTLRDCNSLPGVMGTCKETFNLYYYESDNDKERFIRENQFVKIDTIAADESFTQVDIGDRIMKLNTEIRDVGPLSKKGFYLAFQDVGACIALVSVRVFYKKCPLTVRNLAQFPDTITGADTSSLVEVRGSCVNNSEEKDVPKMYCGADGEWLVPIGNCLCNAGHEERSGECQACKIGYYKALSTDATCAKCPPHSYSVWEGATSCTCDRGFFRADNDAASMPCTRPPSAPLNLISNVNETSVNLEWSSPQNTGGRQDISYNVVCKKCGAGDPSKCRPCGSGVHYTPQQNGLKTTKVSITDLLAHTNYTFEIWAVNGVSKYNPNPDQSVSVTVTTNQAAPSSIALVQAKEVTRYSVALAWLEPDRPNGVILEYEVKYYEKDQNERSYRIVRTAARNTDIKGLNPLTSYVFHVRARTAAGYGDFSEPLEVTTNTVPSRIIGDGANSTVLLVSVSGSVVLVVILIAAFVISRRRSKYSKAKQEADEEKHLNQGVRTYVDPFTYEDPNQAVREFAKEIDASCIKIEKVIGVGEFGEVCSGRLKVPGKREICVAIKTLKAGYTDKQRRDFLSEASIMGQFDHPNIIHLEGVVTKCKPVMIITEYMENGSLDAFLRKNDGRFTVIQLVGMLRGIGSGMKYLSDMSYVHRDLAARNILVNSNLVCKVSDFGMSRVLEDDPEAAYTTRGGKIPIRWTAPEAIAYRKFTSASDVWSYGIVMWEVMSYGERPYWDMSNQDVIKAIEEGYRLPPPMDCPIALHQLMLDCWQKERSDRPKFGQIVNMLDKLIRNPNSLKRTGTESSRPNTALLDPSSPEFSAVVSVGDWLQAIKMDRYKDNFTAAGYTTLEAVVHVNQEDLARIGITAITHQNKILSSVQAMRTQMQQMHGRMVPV

## Cc1c(C(=O)Nc2ccc(Oc3ccnc4cc(OCC(C)(C)O)ccc34)c(F)c2)c(=O)n(-c2ccccc2)n1C [CT053]
[1]
  IC50: 370 nM
[2]
  IC50: 46 nM
[3]
  IC50: 180 nM
[4]
  IC50: 200 nM
[5]; read-out: IC50, percentage area of tube formation (+ VEGF)
  IC50: 20 nM
[5]; read-out: IC90, Tube Area % Effect (+ VEGF)
  IC90: 170 nM
[6]
  IC50: 100 nM
[7]
  IC50: > 10000 nM
[8]
  IC50: > 10000 nM
[9]; [12]
  TGI: 31%
[9]; 10 mg/kg once per day oral gavage
  TGI: 85%
[9]; 20 mg/kg once per day oral gavage
  TGI: 97%
[10]; 1 mg/kg once per day oral gavage
  TGI: 32%
[10]; [12]
  TGI: 87%
[11]; multiple doses, 60-100 mg
  PK profile versus dose: linear PK profile
[11]; single oral dose, 15 to 150 mg
  PK profile versus dose: general linear PK profile
